Bounds are passed on as bounds.

The nature of the first data set: Solubility of matrix in acetonitrile/de-ionized water matrix solvent. The class given is physicochemical. To be noted: acetonitrile/de-ionized water 1:1 (v/v), aqueous with cosolvent or surfactant or cyclodextrin, thermodynamic from solid; 1:1 volumetric ratio acetonitrile to de-ionized water; read-out: Matrix concentration that displayed insolubility. The protocol: To further investigate the sample concentrating properties of CNT anchor spots, experiments were conducted using varying concentration of sample. Solutions were prepared. A solution of 1:1 volumetric ratio of acetonitrile to de-ionized water was prepared as a matrix solvent. Dry crystalline matrix αCHCA was weighed out with a Sartorius Research (Goettingen, Germany) model R200D digital precision balance and combined in a 1.5 mL Eppendorf® Safe-Lock Microcentrifuge tube (Westbury, N.Y.) with sufficient quantity of solution to achieve a matrix concentration varied over three orders of magnitude from 0.006 mg/mL to 6 mg/mL. […] All matrix solutions were prepared freshly and independently of each other in order to reduce possibility of concentration error. The samples were prepared by manually depositing 0.2 μL of solution from pipette to new carbon nanotube enhanced substrates (same parameters as previous experiment). The droplets were allowed to dry in ambient conditions (room temperature 23° C.), and time-lapse images were captured using the optical microscope described previously.
With `N#CC(=Cc1ccc(O)cc1)C(=O)O` [αCHCA, α-cyano-4-hydroxycinnamic acid], the solubility was more than 6000 µg/mL.

The next data set can be described thus: pH of solute solutions of equivalent molarity. The class given is physicochemical. The note with it: solution in 1:1 volumetric ratio acetonitrile to de-ionized water; 1.32 × 10^−6 mol, concentration as in Table 3.
For the molecule `O=C(O)c1ccccc1` [Benzoic acid], the pH worked out at 3.6. Regarding `Oc1ccccc1O` [Catechol], the pH was 4.5. As for `O=C(O)c1ccccc1O` [Salicylic acid], the pH stood at 2.8. Regarding `OCCCCCCCCCCO` [Decanediol, 1,10-Decanediol], the pH was found to be 7.6. On the same count and under the same terms, the value for `N#CC(=Cc1ccc(O)cc1)C(=O)O` [αCHCA, α-cyano-4-hydroxycinnamic acid] was 2.75.

Source of the values: US10074530B1, “Carbon nanotube anchor for mass spectrometer” (University of South Florida, priority 2008, dated 2018).
